Source: ChEMBL document CHEMBL1201862, “PubChem BioAssay data set” (2004)
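48-hour exposure; five concentrations; linearly interpolated endpoints. The concentration for 50% growth inhibition is given as GI50.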 Calls of active or inactive are those of the source. Rule as the data show it: active = GI50 up to about 1.1 µM and inactive = higher.

Tests used:
Test in all cases: inhibition of tumour cell growth, NCI panel, 48 h
NCI-H226 = system: NCI-H226
NCI-H23 = system: NCI-H23
BT-549 = system: BT-549
MDA-MB-231 = system: MDA-MB-231
TK-10 = system: TK-10
KM12 = system: KM12
SF-268 = system: SF-268
SK-OV-3 = system: SK-OV-3
M14 = system: M14
ACHN = system: ACHN
HT-29 = system: HT-29
SK-MEL-5 = system: SK-MEL-5
SN12C = system: SN12C
COLO 205 = system: COLO 205
SNB-19 = system: SNB-19
EKVX = system: EKVX
LOX IMVI = system: LOX IMVI
SNB-75 = system: SNB-75
PC-3 = system: PC-3
NCI-H522 = system: NCI-H522

Row | Compound | GI50 (NCI-H226) | GI50 (NCI-H23) | GI50 (BT-549) | GI50 (MDA-MB-231) | GI50 (TK-10) | GI50 (KM12) | GI50 (SF-268) | GI50 (SK-OV-3) | GI50 (M14) | GI50 (ACHN) | GI50 (HT-29) | GI50 (SK-MEL-5) | GI50 (SN12C) | GI50 (COLO 205) | GI50 (SNB-19) | GI50 (EKVX) | GI50 (LOX IMVI) | GI50 (SNB-75) | GI50 (PC-3) | GI50 (NCI-H522)
1 | CCCCCCCCCC(=O)OCC1(CO)C/C(=C/CC(C(C)C)C(C)C)C(=O)O1 (stereo not given) | 74.5 µM (inactive) | > 100 µM (inactive) | > 100 µM (inactive) | 51.3 µM (inactive) | 77.6 µM (inactive) | 10.2 µM (inactive) | > 100 µM (inactive) | > 100 µM (inactive) | 51.2 µM (inactive) | 71.1 µM (inactive) | 31.6 µM (inactive) | 25.7 µM (inactive) | 51.9 µM (inactive) | 9.18 µM (inactive) | 32.6 µM (inactive) | 70.1 µM (inactive) | 21.6 µM (inactive) | 78 µM (inactive) | 42.4 µM (inactive) | 19.4 µM (inactive)
2 | O=[N+]([O-])/C=C/c1cc2ccc3ccccc3c2[nH]1 | 1.06 µM (active) | 2.02 µM (inactive) | 1.89 µM (inactive) | 1.43 µM (inactive) | 1.58 µM (inactive) | 1.83 µM (inactive) | 1.77 µM (inactive) | 4.07 µM (inactive) | 1.64 µM (inactive) | 1.54 µM (inactive) | 2.19 µM (inactive) | 1.64 µM (inactive) | 1.86 µM (inactive) | 1.75 µM (inactive) | 2.66 µM (inactive) | 2.76 µM (inactive) | 1.23 µM (inactive) | 1.79 µM (inactive) | 1.46 µM (inactive) | 0.851 µM (active)
3 | CCOC(=O)C1(Cc2ccc(C)cc2)Cc2ccc(C)cc2C1=O (stereo not given) | 35.2 µM (inactive) | 18.5 µM (inactive) | 10 µM (inactive) | 16.5 µM (inactive) | 23.5 µM (inactive) | 4.57 µM (inactive) | 48.4 µM (inactive) | 24.4 µM (inactive) | 9.59 µM (inactive) | 41.7 µM (inactive) | 5.43 µM (inactive) | 6.4 µM (inactive) | 14.9 µM (inactive) | 11.7 µM (inactive) | 36.6 µM (inactive) | 36.7 µM (inactive) | 12.4 µM (inactive) | 24.3 µM (inactive) | 26 µM (inactive) | 6.34 µM (inactive)
4 | CC[C@@]1(O)C(=O)OCc2c1cc1n(c2=O)Cc2c-1nc1ccccc1c2Cl | < 0.01 µM (active) | < 0.01 µM (active) | < 0.0136 µM (active) | 8.32 µM (inactive) | 6.21 µM (inactive) | 0.124 µM (active) | < 0.01 µM (active) | 0.0217 µM (active) | < 0.0133 µM (active) | < 0.01 µM (active) | 0.0461 µM (active) | < 0.0141 µM (active) | < 0.01 µM (active) | 0.658 µM (active) | < 0.0107 µM (active) | 0.659 µM (active) | < 0.01 µM (active) | 0.0123 µM (active) | < 0.0214 µM (active) | < 0.0127 µM (active)
5 | C=CCN1C(=O)/C(=C/c2ccc(C)cc2)N=C1SC/C=C/C | > 100 µM (inactive) | 31.1 µM (inactive) | 30.4 µM (inactive) | 51.5 µM (inactive) | > 100 µM (inactive) | 27.8 µM (inactive) | 33.2 µM (inactive) | > 100 µM (inactive) | 45.6 µM (inactive) | 40.2 µM (inactive) | 29.1 µM (inactive) | 22.7 µM (inactive) | 28.1 µM (inactive) | 36.5 µM (inactive) | 15.5 µM (inactive) | 27 µM (inactive) | 19.6 µM (inactive) | 17.8 µM (inactive) | 33 µM (inactive) | 29 µM (inactive)
6 | O=S1(=O)c2ccccc2N2C(c3ccccc3)=NOC2(c2ccccc2)CC1c1ccc(Br)cc1 (stereo not given) | > 100 µM (inactive) | > 100 µM (inactive) | > 100 µM (inactive) | > 100 µM (inactive) | > 100 µM (inactive) | > 100 µM (inactive) | > 100 µM (inactive) | > 100 µM (inactive) | 95.7 µM (inactive) | > 100 µM (inactive) | > 100 µM (inactive) | > 100 µM (inactive) | > 100 µM (inactive) | > 100 µM (inactive) | > 100 µM (inactive) | > 100 µM (inactive) | > 100 µM (inactive) | > 100 µM (inactive) | > 100 µM (inactive) | > 100 µM (inactive)
7 | CC(=O)N(C(C)=O)c1cc2c3c(c1)CCCN3CCC2 | > 10 µM (inactive) | > 10 µM (inactive) | > 10 µM (inactive) | > 10 µM (inactive) | > 10 µM (inactive) | > 10 µM (inactive) | > 10 µM (inactive) | > 10 µM (inactive) | > 10 µM (inactive) | > 10 µM (inactive) | > 10 µM (inactive) | > 10 µM (inactive) | > 10 µM (inactive) | > 10 µM (inactive) | > 10 µM (inactive) | > 10 µM (inactive) | > 10 µM (inactive) | > 10 µM (inactive) | > 10 µM (inactive) | > 10 µM (inactive)
8 | O=C1c2c(O)cccc2C(C(=O)CCCCC(=O)C2c3cccc(O)c3C(=O)c3c(O)cccc32)c2cccc(O)c21 | 0.918 µM (active) | 0.618 µM (active) | 0.603 µM (active) | 0.426 µM (active) | 1.55 µM (inactive) | 0.607 µM (active) | 0.69 µM (active) | 0.562 µM (active) | 0.897 µM (active) | 0.729 µM (active) | 0.641 µM (active) | 0.473 µM (active) | 0.83 µM (active) | 0.759 µM (active) | 0.288 µM (active) | 0.596 µM (active) | 0.668 µM (active) | 0.948 µM (active) | 0.107 µM (active) | 0.543 µM (active)
9 | CN(C)CCNC(=O)Cn1ccc(=O)c2c([N+](=O)[O-])cccc21 | > 100 µM (inactive) | > 100 µM (inactive) | > 100 µM (inactive) | > 100 µM (inactive) | > 100 µM (inactive) | > 100 µM (inactive) | > 100 µM (inactive) | > 100 µM (inactive) | > 100 µM (inactive) | > 100 µM (inactive) | > 100 µM (inactive) | > 100 µM (inactive) | > 100 µM (inactive) | > 100 µM (inactive) | > 100 µM (inactive) | > 100 µM (inactive) | > 100 µM (inactive) | > 100 µM (inactive) | > 100 µM (inactive) | > 100 µM (inactive)
10 | CN(CCN(C)Cc1ccc(Cl)c(Cl)c1)CCN1CCCC1 | 39.1 µM (inactive) | 42.1 µM (inactive) | 65.6 µM (inactive) | 18.8 µM (inactive) | 40 µM (inactive) | 29.9 µM (inactive) | 10.4 µM (inactive) | 71.9 µM (inactive) | 23.2 µM (inactive) | > 43.3 µM (inactive) | 6.32 µM (inactive) | 14.9 µM (inactive) | > 48 µM (inactive) | 19.2 µM (inactive) | > 49.3 µM (inactive) | > 64 µM (inactive) | 13.4 µM (inactive) | 26 µM (inactive) | 32.5 µM (inactive) | 19.6 µM (inactive)
11 | CCN(CC)CCSc1c2cc(OC)ccc2nc2ccc(OC)cc12 | 16.2 µM (inactive) | 3.3 µM (inactive) | 5.69 µM (inactive) | 6.53 µM (inactive) | 4.65 µM (inactive) | 5.09 µM (inactive) | 3.08 µM (inactive) | 25.1 µM (inactive) | 6.73 µM (inactive) | 2.21 µM (inactive) | 2.05 µM (inactive) | 13.6 µM (inactive) | 3.03 µM (inactive) | 1.98 µM (inactive) | 12.1 µM (inactive) | 9.59 µM (inactive) | 2.17 µM (inactive) | 14.4 µM (inactive) | 3.56 µM (inactive) | 1.59 µM (inactive)
12 | O=[N+]([O-])c1c(Br)cc(Br)c2c1Nc1c(ccc(Cl)c1Cl)S2 | 5.96 µM (inactive) | 14.4 µM (inactive) | 2.88 µM (inactive) | 13.2 µM (inactive) | 22.5 µM (inactive) | 5.89 µM (inactive) | 16.3 µM (inactive) | 19.6 µM (inactive) | 11.4 µM (inactive) | 16.8 µM (inactive) | 11.7 µM (inactive) | 13.6 µM (inactive) | 13.8 µM (inactive) | 11.9 µM (inactive) | 18.3 µM (inactive) | 16.6 µM (inactive) | 2.34 µM (inactive) | 36.5 µM (inactive) | 17.7 µM (inactive) | 6.53 µM (inactive)
13 | O=[N+]([O-])c1ccc2nnnn2c1 | 12.3 µM (inactive) | 22.6 µM (inactive) | 23.3 µM (inactive) | 10.8 µM (inactive) | 48.3 µM (inactive) | 23.1 µM (inactive) | 70.6 µM (inactive) | 42.6 µM (inactive) | 13.8 µM (inactive) | 10.7 µM (inactive) | 16.5 µM (inactive) | 18 µM (inactive) | 19.8 µM (inactive) | 23.9 µM (inactive) | 93.8 µM (inactive) | > 100 µM (inactive) | 5.7 µM (inactive) | 85.3 µM (inactive) | > 100 µM (inactive) | 3.39 µM (inactive)
14 | CCOC(=O)C1=C(C)C(C(=O)OC)/C(=C/c2cccc3cccnc23)C1=O (stereo not given) | > 10 µM (inactive) | > 10 µM (inactive) | > 10 µM (inactive) | > 10 µM (inactive) | > 10 µM (inactive) | > 10 µM (inactive) | > 10 µM (inactive) | > 10 µM (inactive) | > 10 µM (inactive) | > 10 µM (inactive) | > 10 µM (inactive) | > 10 µM (inactive) | > 10 µM (inactive) | > 10 µM (inactive) | > 10 µM (inactive) | > 10 µM (inactive) | > 10 µM (inactive) | > 10 µM (inactive) | > 10 µM (inactive) | > 10 µM (inactive)
